Consider 3 compounds from patent US20240398942A1, “USE OF ANTI-CD40 ANTIBODY” (CHIA TAI TIANQING PHARMACEUTICAL GROUP CO., LTD., priority 2021, published 2024).

Data set [1] concerns human B-cell lymphoma Ramos cells. Put plainly: Efficacy of anti-CD40 antibody and anlotinib, Ramos subcutaneous xenograft mouse model. Type of data set: in vivo. As to the method: Human B-cell lymphoma Ramos cells (purchased from the Cell Bank of the Chinese Academy of Sciences) were cultured in an RPMI1640 medium containing 10% of fetal bovine serum and penicillin-streptomycin. The cells were inoculated in a 37° C./5% CO2 incubator until the logarithmic growth phase and collected for grafting.
The mice used in this study were NOD-Scid mice (purchased from Shanghai Lingchang Biotechnology Co., Ltd.) aged about 6 weeks and bred in specific pathogen-free conditions in 12/12-hour light/dark cycles. The health status of the animals was monitored daily.
Each mouse was inoculated subcutaneously with 1×10^7 Ramos cells. When the tumor grew to 80-100 mm^3, the mice were divided into groups of 10 according to the tumor volume. The administration regimen is shown in Table 10, with the first dosing day designated as DO. Antibody huC1H1-V2 and IgG2 (Biointron, Cat. No. B107803) were both formulated to desired concentrations with normal saline, and anlotinib dihydrochloride was formulated at desired concentrations with distilled water. At the end of study (D14), the animals were sacrificed by CO2 anesthesia and dissected to give the tumors. The tumors were photographed.
The tumor diameters were measured twice weekly with a vernier caliper. Tumor volume (V)=½×a×b^2, wherein a and b denote length and width, respectively; T/C (%)=(T−T0)/(C−C0)×100, wherein T and C refer to the tumor volumes of the treatment group and the IgG2 control group on day 14, respectively, and TO and C0 refer to the tumor volumes of the treatment group and IgG2 control group on day 0, respectively; the tumor growth inhibition % (TGI %)=100−T/C (%). When the tumor regressed, the tumor growth inhibition % (TGI %)=100−(T−T0)/T0×100. If the tumor volume was smaller than the initial volume, i.e., T<T0 or C<C0, the outcome was defined as partial regression (PR); if the tumors completely disappeared, i.e., the outcome was defined as complete regression (CR).

Data set [2] has as its system Cynomolgus monkey CD40-his. Put plainly: Biacore surface plasmon resonance affinity and binding kinetics. To be noted: for Kd: dissociation rate. The source says:
(§1) The affinity and binding kinetics of the anti-CD40 antibody in the present application were characterized by a Biacore T200 system (GE Healthcare, Pittsburgh, PA, USA).
(§2) Briefly, a goat anti-human IgG (GE Healthcare, Cat. No. BR100839, human antibody capture kit) was covalently linked to a CM5 chip (GE Healthcare, Cat. No. BR100530, carboxymethylated dextran-coated chip) via the primary amine group using a standard amine coupling kit supplied by Biacore (GE Healthcare, Pittsburgh, PA, USA). Unreacted portions on the biosensor surface were blocked with ethanolamine. Then, the anti-CD40 antibody of the present application and two benchmark antibodies (BM1 (dacetuzumab, Genentech Inc., also referred to CD40-BM1, prepared in-house; the heavy and light chain amino acid sequences are set forth in SEQ ID NOs: 40 and 41, respectively) and BM2 (selicrelumab, Abgenix Inc., also referred to CD40-BM2, prepared in-house; the heavy and light chain amino acid sequences are set forth in SEQ ID NOS: 42 and 43, respectively)) at a concentration of 66.67 nM were directed through the chip at a flow rate of 10 μL/min. Then, serially diluted recombinant human CD40-his (Acro biosystems, Cat. No. CD0-H5228, serially 2-fold diluted from 80 nM in HBS-EP^+ buffer (supplied by Biacore)) or cynomolgus monkey CD40-his protein (Acro biosystems, Cat. No. CD0-C52H6, serially 2-fold diluted from 80 nM in HBS-EP^+ buffer (supplied by Biacore)) was directed through the chip at a flow rate of 30 μL/min. The antigen-antibody binding kinetics was tracked for 2 min and the dissociation kinetics was tracked for 10 min. The association and dissociation curves were fitted to a 1:1 Langmuir binding model using BIAcore evaluation software. KD, Ka, and Kd values were determined.

Data set [3] has as its target T1, Human CD40-his (Homo sapiens, UniProt P25942).
T1 construct: His; purchased Acro biosystems CD0-H5228
The description is as above. To be noted: for Kd: dissociation rate.
Excerpt: as §1, §2

In data set [4] the target is T1, Human CD40-his. Put plainly: Octet kinetics of humanized C1H1 antibodies. Type of data set: binding. To be noted: Table 3, Octet. As to the method:
After six days of culture in a shake flask, the cell supernatant containing the humanized antibodies huC1H1-V1 to huC1H1-V4 was harvested and the binding affinity of the antibodies to human CD40 was determined on an Octet system (Fortebio, Octet RED 96) according to the following procedures. Briefly, an anti-human IgG Fc capture (AHC) biosensor (from ForteBio) was pre-soaked in a 10 mM glycine solution (pH 1.5) for 3 s, and then soaked in a running buffer (PBST containing 0.5% w/v of BSA) for 3 s. The pre-soaking and soaking procedures were repeated 3 times. Then, the sensor was soaked in the cell supernatant containing the humanized anti-CD40 antibody, chimeric antibody C1H1 dissolved in HBS-EP^+ buffer at a concentration of 5 μg/mL, or the benchmark dissolved in HBS-EP^+ buffer at a concentration of 5 μg/mL for 120 s, and then soaked in the running buffer for 5 min. The new baseline was run in the running buffer for 180 s. The sensor was then soaked for 120 s in human CD40-his protein (Acro biosystems, Cat. No. CD0-H5228) 2-fold serially diluted from 40 nM in the running buffer and for 10 min in the running buffer […]. Finally, the sensor was pre-soaked in a 10 mM glycine solution (pH 1.5) for 3 s, and then soaked in the running buffer for 3 s. The pre-soaking and soaking procedures were repeated 3 times. […]

Where [5] appears, read: Table 2, Biacore, association rate.
Setting [6] is: Table 5, Biacore, purified antibodies.

Counter-ions that a name gives are not always drawn.

T1 sequence (P25942 21-277): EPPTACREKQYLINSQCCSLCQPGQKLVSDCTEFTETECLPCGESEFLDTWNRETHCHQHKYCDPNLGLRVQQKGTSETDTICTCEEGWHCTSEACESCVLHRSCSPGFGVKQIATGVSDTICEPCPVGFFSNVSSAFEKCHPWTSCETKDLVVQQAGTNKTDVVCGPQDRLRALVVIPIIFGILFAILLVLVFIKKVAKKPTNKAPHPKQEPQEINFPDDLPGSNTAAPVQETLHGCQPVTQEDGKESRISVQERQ

For the compound `COc1cc2c(Oc3ccc4[nH]c(C)cc4c3F)ccnc2cc1OCC1(N)CC1` [anlotinib dihydrochloride, 1-[[[4-(4-fluoro-2-methyl-1H-indol-5-yl)oxy-6-methoxyquinolin-7-yl]oxy]methyl]cyclopropylamine, reference compound], the “Mean tumor volume (mean ± SD) D 0” value in data set [1] (baseline, huC1H1-V2 0.5 mg/kg i.p. once every 2 days × 8, anlotinib dihydrochloride 1 mg/kg intragastric daily × 15) is listed as 85.3 ± 3.8 mm^3. Moreover, the “Mean tumor volume (mean ± SD) D 14” value in data set [1] (huC1H1-V2 0.5 mg/kg i.p. once every 2 days × 8, anlotinib dihydrochloride 1 mg/kg intragastric daily × 15) came to 1602.8 ± 137.1 mm^3. In addition, the “TGI D 14 (tumor growth inhibition rate)” value in data set [1] (huC1H1-V2 0.5 mg/kg i.p., anlotinib dihydrochloride 1 mg/kg intragastric) is 56%. The “Tolerability (symptoms such as weight loss)” value in data set [1] (huC1H1-V2 0.5 mg/kg i.p., anlotinib dihydrochloride 1 mg/kg intragastric, tumor-bearing mice) is on record as “well tolerated”. In data set [1] (vs IgG2 group, huC1H1-V2 0.5 mg/kg i.p., anlotinib dihydrochloride 1 mg/kg intragastric), the “T/C D 14” value is on record as 44%.

For “BM1: benchmark antibody dacetuzumab, Genentech Inc., prepared in-house; heavy and light chain SEQ ID NOs: 40 and 41 [reference compound]”, the Ka in data set [2] (setting [5]) was 623000 M⁻¹ s⁻¹; in data set [2] (setting [6]) it was 764000 M⁻¹ s⁻¹; with Human CD40-his [3] (setting [5]), 739000 M⁻¹ s⁻¹; with Human CD40-his [3] (setting [6]), 803000 M⁻¹ s⁻¹. The Kd in data set [2] (Table 2, Biacore) was found to be 0.006164 s⁻¹; in data set [2] (Table 5, Biacore), 0.007397 s⁻¹; in the data set with Human CD40-his [3] (Table 2, Biacore), 0.006556 s⁻¹; with Human CD40-his [3] (Table 5, Biacore), 0.007562 s⁻¹.

“BM2: benchmark antibody selicrelumab, Abgenix Inc., prepared in-house; heavy and light chain SEQ ID NOs: 42 and 43 [reference compound]”: the Kd in data set [2] (Table 5, Biacore) turned out to be 0.001508 s⁻¹; in the data set with Human CD40-his [3] (Table 5, Biacore) it was 0.001616 s⁻¹; with Human CD40-his [4] (dissociation rate) it was 0.000979 s⁻¹. Also, the Ka in data set [2] (setting [6]) worked out at 173000 M⁻¹ s⁻¹; in the data set with Human CD40-his [3] (setting [6]) it was 206000 M⁻¹ s⁻¹; in the data set with Human CD40-his [4] (humanized antibodies in cell supernatant, chimeric and benchmark 5 μg/mL), 874000 M⁻¹ s⁻¹.
